The test system of series [1] is human fibrosarcoma HT-1080 cells. The series can be described thus: SA-β-Gal staining, HT-1080 cells. It counts as cell-based. Here is the method:
FIG. 13a: Exposure to T-oligo increases SA-β-Gal activity. HT-1080 cells were treated for 4 days with diluent alone or 40 μM T-oligo or the complementary control oligo, then stained and assayed for SA-β-Gal activity. FIG. 13b: Quantitative analysis of SA-β-Gal positive cells. Cells expressing SA-β-Gal activity were counted and presented as percentage of total cells in the cultures. Averages and standard deviations were calculated from 3 representative fields from each of 3 independent experiments. FIG. 13c: Effect of T-oligo on cell proliferation. Cells were treated for 4 days as in FIG. 12 and assayed for DNA synthesis by BrdU incorporation. FIG. 13d: Quantitative analysis of BrdU incorporation. Dark black nuclei indicate BrdU incorporated into nuclear DNA. BrdU positive cells were calculated and presented as percentage of total cells in the cultures. Averages and standard deviations were calculated from 3 representative fields from each of 3 independent experiments. FIG. 13e: Effect of T-oligo on pRb phosphorylation. Cells were treated as in FIG. 13a and were then collected for protein analysis by western blot using 30 μg total protein and probed for pRb-ser780*, ser795* and ser807/811* (pRb phosphorylated at serine 780, serine 795 and serine 807/811 respectively). Lanes D, T and C contain protein samples from cells treated with diluent, T-oligo and complementary oligo respectively. β-actin was used as a loading control.
Parallel cultures were treated as described in FIG. 13a. Cells were then washed once with PBS and refed with complete medium without additional treatment for 24 hours or 48 hours. FIG. 14a: SA-β-Gal activity. Cells were stained for SA-β-Gal activity. […]
TRF2^DN has been reported to induce a senescent phenotype in human fibrosarcoma HT-1080 cells. To determine whether exposure to the telomere 3′ overhang DNA (T-oligo) also induces senescence in these cells, HT-1080 cells (American Type Culture Collection; Manassas, Va.) were treated with either diluent alone, T-oligo or the complementary oligo as a control, for 4 days and then assessed for SA-β-Gal activity. […]

The test system of another series is Jurkat cells. Put plainly: FACS analysis of propidium iodide stained Jurkat cells (cell cycle, sub-G0/G1 apoptosis). Type of series: cell-based, human. The procedure: FIGS. 1A-1H show FACS analysis of propidium iodide stained Jurkat cells (immortalized T lymphocytes), treated with diluent (FIGS. 1A and 1E); 40 μM 11mer-1 pGTTAGGGTTAG (SEQ ID NO: 2) (FIGS. 1B and 1F); 40 μM 11mer-2 pCTAACCCTAAC (SEQ ID NO: 3) (FIGS. 1C and […]); 40 μM 11mer-3 pGATCGATCGAT (SEQ ID NO: 4) (FIGS. 1D and 1H). Jurkat cells were treated with the stated reagents for 48 hours before analysis (FIGS. 1A-1D) or 72 hours (FIGS. 1E-1H).
FIGS. 2A-2F are profiles showing the results of fluorescence activated cell sorting, for the following additions to the cells: FIG. 2A, diluent; FIG. 2B, 0.4 μM 11mer-1; FIG. 2C, 0.4 μM 11mer-1-S; FIG. 2D, diluent; FIG. 2E, 40 μM 11mer-1; FIG. 2F, 40 μM 11 mer-1-S.
Oligonucleotides homologous to the telomere overhang repeat sequence (TTAGGG; SEQ ID NO: 1), sequence (11mer-1: pGTTAGGGTTAG; SEQ ID NO: 2), complementary to this sequence (11mer-2: pCTAACCCTAAC; SEQ ID NO: 3) and unrelated to the telomere sequence (11mer-3: pGATCGATCGAT; SEQ ID NO: 4) were added to cultures of Jurkat cells, a line of human T cells reported to undergo apoptosis in response to telomere disruption. Within′ 48 hours, 50% of the cells treated with 40 μM of SEQ ID NO: 5 had accumulated in the S phase, compared to 25-30% for control cells (p<0.0003, non-paired t-test; see FIGS. 1A-1D), and by 72 hours, 13% of these cells were apoptotic as determined by a sub-G0/G1 DNA content, compared to 2-3% of controls (p<0.007, non-paired t-test; see FIGS. 1E-1H). At 96 hours, 20±3% of the 11mer-1 treated cells were apoptotic compared with 3-5% of controls (p<0.0001, non-paired t-test). To exclude preferential uptake of the 11mer-1 as an explanation of its singular effects, Jurkat cells were treated with oligonucleotides labeled on the 3′ end with fluorescein phosphoramidite, then subjected to confocal-microscopy and FACS analysis. The fluorescence intensity of the cells was the same after all treatments at 4 hours and 24 hours.
Cultures of Jurkat human T cells were treated with either diluent, 11mer-1 ([…]) or the phosphorothioate 11mer-1 (11mer-1-S) for 96 hours, then collected and processed for FACS analysis. Two concentrations of the oligonucleotides were tested, 0.4 μM (FIGS. 2A-2C) and 40 μM (FIGS. 2D-2F).

Series [2] has as its system p53, E2F1 transcription factor. Put plainly: Western analysis of p53 and E2F1 in Jurkat cells. The settings on record: by 24 hours after addition. Type of series: cell-based, human.

{P} = phosphate

Turning to “pGTTAGGGTTAG (DNA, 5' {P}, backbone not given here; listed as Homo sapiens) [Oligonucleotide 11mer-1]”, the “SA-β-Gal activity after removal of oligo” value in series [1] (HT-1080, 4 days 40 μM, then 1 and 2 days fresh medium without oligonucleotide) is “increase in SA-β-Gal activity”. In series [1] (HT-1080 cells, 40 μM, 4 days), this substance returned an SA-β-Gal positive cells of 80±7%. The “effect on exponentially growing cell cycle profile” value in the series on Jurkat cells (0.4 μM, 96 hours) was “neither of the oligonucleotides affected”. In the series with Jurkat cells (40 μM, 48 hours), the “cells accumulated in the S phase” value amounted to 50%. In the series on Jurkat cells (40 μM, 72 hours), the “apoptotic cells (sub-G0/G1 DNA content)” value came to 13%. The “apoptosis (sub-G0/G1 peak)” value in the series on Jurkat cells (40 μM, 96 hours) is listed as “induced extensive apoptosis”. In addition, the apoptotic cells with Jurkat cells (96 hours) came out at 20±3%. In series [2], the “level of the E2F1 transcription factor” value is on record as “concomitant increase” and the “p53 level (Western analysis)” value is reported as “increase”.
